In US7700577B2, “Carbohydrate based anti-bacterials” (Alchemia Limited, priority 2002, dated 2010):

Assays:
[1] = system: S. aureus; assay: MIC testing, broth microdilution (NCCLS), S. aureus; assay type: cell-based, Staphylococcus aureus; details: for SA24 (MIC): S. aureus after 24 hours exposure; for SA48 (MIC): S. aureus after 48 hours exposure
Excerpt: (§1) The broth microdilution format of the National Committee for Clinical Laboratory Standards (NCCLS) approved standard for susceptibility tests as outlined in M7-A4 “methods for dillution Antimicrobial susceptibility tests for bacteria that grow aerobically; approved standard—fifth edition”, January 2000 was utilized for minimum inhibitory concentration testing in Mueller-Hinton broth. The broth for Streptococcus pyogenes testing was supplemented with 2% laked horse blood. A positive result in initial testing was determined by complete inhibition of macroscopic bacterial growth at a concentration of 128 micrograms per mL after incubation for 16 to 24 hours at 37 degrees C. In the case of Micrococcus luteus, incubation was at 30 degrees C. […] Bacterial Types Are: • SA24 S. aureus after 24 hours exposure • SA48 S. aureus after 48 hours exposure • EC24 E. coli after 24 hours exposure

[2] = system: E. coli; assay: MIC testing, broth microdilution (NCCLS), E. coli; assay type: cell-based; details: E. coli after 24 hours exposure
Excerpt: as §1

SMILES	SA24 (MIC) [1]	SA48 (MIC) [1]	EC24 (MIC) [2]
O=C(Cc1ccc(C(F)(F)F)cc1)NC1COC(CO)C(NC(=O)c2ccc(-c3ccccc3)cc2)C1OC1OC(CO)C(O)C(O)C1NC(=O)Nc1cccc(C(F)(F)F)c1 (stereo not shown) [compound 7]	+ (+ indicates an MIC value of less than 128 micrograms per mL)	+ (+ indicates an MIC value of less than 128 micrograms per mL)	− (− indicates an MIC of greater then 128 micrograms per mL)
O=C(N[C@H]1C(CO)OCC(NS(=O)(=O)c2cccc(C(F)(F)F)c2)[C@H]1O[C@@H]1OC(CO)[C@@H](O)[C@H](O)C1NS(=O)(=O)c1cccc(C(F)(F)F)c1)c1ccc(-c2ccccc2)cc1 (stereo partly shown) [compound 36]	+ (+ indicates an MIC value of less than 128 micrograms per mL)	+ (+ indicates an MIC value of less than 128 micrograms per mL)	
N=C(Nc1cccc(C(F)(F)F)c1)NC1[C@H](O[C@@H]2C(NC(=N)Nc3cccc(C(F)(F)F)c3)COC(CO)[C@@H]2NC(=N)Nc2ccc(-c3ccccc3)cc2)OC(CO)[C@@H](O)[C@@H]1O (stereo partly shown) [compound 21]	+ (+ indicates an MIC value of less than 128 micrograms per mL)	+ (+ indicates an MIC value of less than 128 micrograms per mL)	+ (+ indicates an MIC value of less than 128 micrograms per mL)
Cc1ccc(S(=O)(=O)NC2COC(CO)[C@H](NC(=O)c3ccc(-c4ccccc4)cc3)[C@@H]2O[C@@H]2OC(CO)[C@@H](O)[C@H](O)C2NC(=O)Nc2cccc(C(F)(F)F)c2)cc1 (stereo partly shown) [compound 39]	+ (+ indicates an MIC value of less than 128 micrograms per mL)	+ (+ indicates an MIC value of less than 128 micrograms per mL)	− (− indicates an MIC of greater then 128 micrograms per mL)
CCCCCC(C)CCC(=O)N[C@H]1C(CO)OCC(NC(=O)Nc2cccc(C(F)(F)F)c2)[C@H]1O[C@@H]1OC(CO)[C@@H](O)[C@H](O)C1NC(=O)Nc1cccc(C(F)(F)F)c1 (stereo partly shown) [compound 55]	+ (+ indicates an MIC value of less than 128 micrograms per mL)	+ (+ indicates an MIC value of less than 128 micrograms per mL)	
O=C(Cc1cccc(C(F)(F)F)c1)NC1COC(CO)C(NC(=O)c2ccc(-c3ccccc3)cc2)C1OC1OC(CO)C(O)C(O)C1NC(=O)Cc1cccc(C(F)(F)F)c1 (stereo not shown) [compound 2]	+ (+ indicates an MIC value of less than 128 micrograms per mL)	+ (+ indicates an MIC value of less than 128 micrograms per mL)	− (− indicates an MIC of greater then 128 micrograms per mL)
NC1[C@H](O[C@@H]2C(NC(=O)Nc3cccc(C(F)(F)F)c3)COC(CO)[C@@H]2NC(=O)c2ccc(-c3ccccc3)cc2)OC(CO)[C@@H](O)[C@@H]1O (stereo partly shown) [compound 43]	+ (+ indicates an MIC value of less than 128 micrograms per mL)		
Cc1ccc(NC(=N)NC2[C@H](O[C@@H]3C(NC(=O)Nc4cccc(C(F)(F)F)c4)COC(CO)[C@@H]3NC(=O)c3ccc(-c4ccccc4)cc3)OC(CO)[C@@H](O)[C@@H]2O)cc1 (stereo partly shown) [compound 46]		+ (+ indicates an MIC value of less than 128 micrograms per mL)	− (− indicates an MIC of greater then 128 micrograms per mL)
CCCCCCCCCCC(=O)NC1C(CO)OCC(NC(=O)Nc2cccc(C(F)(F)F)c2)C1OC1OC(CO)C(O)C(O)C1NC(=O)OCc1ccccc1 (stereo not shown) [compound 78]	+ (+ indicates an MIC value of less than 128 micrograms per mL)		
N[C@H]1C(CO)OCC(NC(=O)Nc2cccc(C(F)(F)F)c2)[C@H]1O[C@@H]1OC(CO)[C@@H](O)[C@H](O)C1NC(=O)OCc1ccccc1 (stereo partly shown) [compound 45]	+ (+ indicates an MIC value of less than 128 micrograms per mL)		
CCCCCCCCCCC(=O)NC1C(CO)OCC(NC(=O)Nc2cccc(C(F)(F)F)c2)C1OC1OC(CO)C(O)C(O)C1NS(=O)(=O)c1ccc(C)cc1 (stereo not shown) [compound 79]	+ (+ indicates an MIC value of less than 128 micrograms per mL)		
N=C(Nc1cccc(C(F)(F)F)c1)NC1[C@H](O[C@@H]2C(NC(=N)Nc3cccc(C(F)(F)F)c3)COC(CO)[C@@H]2NC(=O)C(N)c2ccc(-c3ccccc3)cc2)OC(CO)[C@@H](O)[C@@H]1O (stereo partly shown) [compound 25]	+ (+ indicates an MIC value of less than 128 micrograms per mL)	+ (+ indicates an MIC value of less than 128 micrograms per mL)	+ (+ indicates an MIC value of less than 128 micrograms per mL)
CCCCCN(CCCCC)C1C(CO)OCC(NC(=O)Nc2cccc(C(F)(F)F)c2)C1OC1OC(CO)C(O)C(O)C1NC(=O)Nc1cccc(C(F)(F)F)c1 (stereo not shown) [compound 60]	+ (+ indicates an MIC value of less than 128 micrograms per mL)	+ (+ indicates an MIC value of less than 128 micrograms per mL)	
O=C(Nc1cccc(C(F)(F)F)c1)NC1COC(CO)[C@H](NC(=O)c2ccc(-c3ccccc3)cc2)[C@@H]1O[C@@H]1OC(CO)[C@@H](O)[C@H](O)C1NC(=O)OCc1ccccc1 (stereo partly shown) [compound 44]	+ (+ indicates an MIC value of less than 128 micrograms per mL)	+ (+ indicates an MIC value of less than 128 micrograms per mL)	
Cc1ccc(S(=O)(=O)NC2[C@H](O[C@@H]3C(NC(=N)Nc4cccc(C(F)(F)F)c4)COC(CO)[C@@H]3N)OC(CO)[C@@H](O)[C@@H]2O)cc1 (stereo partly shown) [compound 13]	+ (+ indicates an MIC value of less than 128 micrograms per mL)		
O=C(Nc1cccc(C(F)(F)F)c1)NC1[C@H](O[C@@H]2C(NS(=O)(=O)c3cccc(C(F)(F)F)c3)COC(CO)[C@@H]2NC(=O)c2ccc(-c3ccccc3)cc2)OC(CO)[C@@H](O)[C@@H]1O (stereo partly shown) [compound 37]	+ (+ indicates an MIC value of less than 128 micrograms per mL)	+ (+ indicates an MIC value of less than 128 micrograms per mL)	− (− indicates an MIC of greater then 128 micrograms per mL)
N=C(Nc1cccc(C(F)(F)F)c1)NC1[C@H](O[C@@H]2C(NC(=N)Nc3cccc(C(F)(F)F)c3)COC(CO)[C@@H]2NCc2ccc(-c3ccccc3)cc2)OC(CO)[C@@H](O)[C@@H]1O (stereo partly shown) [compound 20]	+ (+ indicates an MIC value of less than 128 micrograms per mL)	+ (+ indicates an MIC value of less than 128 micrograms per mL)	+ (+ indicates an MIC value of less than 128 micrograms per mL)
CCCCCCCCCCC(=O)NC1C(CO)OCC(NC(=O)NCCCC)C1OC1OC(CO)C(O)C(O)C1NS(=O)(=O)c1ccc(C)cc1 (stereo not shown) [compound 80]	+ (+ indicates an MIC value of less than 128 micrograms per mL)		
N=C(Nc1cccc(C(F)(F)F)c1)NC1[C@H](O[C@@H]2C(NC(=N)Nc3cccc(C(F)(F)F)c3)COC(CO)[C@@H]2NC(=O)c2ccc(-c3ccccc3)cc2)OC(CO)[C@@H](O)[C@@H]1O (stereo partly shown) [compound 16]	+ (+ indicates an MIC value of less than 128 micrograms per mL)	+ (+ indicates an MIC value of less than 128 micrograms per mL)	+ (+ indicates an MIC value of less than 128 micrograms per mL)
CC(C)=CCCC(C)=CCCC(C)=CCN[C@H]1C(CO)OCC(NC(=N)Nc2cccc(C(F)(F)F)c2)[C@H]1O[C@@H]1OC(CO)[C@@H](O)[C@H](O)C1NC(=N)Nc1cccc(C(F)(F)F)c1 (stereo partly shown) [compound 24]	+ (+ indicates an MIC value of less than 128 micrograms per mL)	+ (+ indicates an MIC value of less than 128 micrograms per mL)	+ (+ indicates an MIC value of less than 128 micrograms per mL)
CCCCCCCCOc1ccc(C(=O)NC2C(CO)OCC(NC(=O)Nc3cccc(C(F)(F)F)c3)C2OC2OC(CO)C(O)C(O)C2NC(=O)Nc2cccc(C(F)(F)F)c2)cc1 (stereo not shown) [compound 64]	+ (+ indicates an MIC value of less than 128 micrograms per mL)	+ (+ indicates an MIC value of less than 128 micrograms per mL)	
O=C(Nc1cccc(C(F)(F)F)c1)NC1C(OC2C(NC(=O)c3cccc(C(F)(F)F)c3)COC(CO)C2NC(=O)c2ccc(-c3ccccc3)cc2)OC(CO)C(O)C1O (stereo not shown) [compound 5]	+ (+ indicates an MIC value of less than 128 micrograms per mL)	+ (+ indicates an MIC value of less than 128 micrograms per mL)	− (− indicates an MIC of greater then 128 micrograms per mL)
O=C(/C=C/c1ccc(Cl)cc1)N[C@H]1C(CO)OCC(NC(=O)Nc2cccc(C(F)(F)F)c2)[C@H]1O[C@@H]1OC(CO)[C@@H](O)[C@H](O)C1NC(=O)Nc1cccc(C(F)(F)F)c1 (stereo partly shown) [compound 58]	+ (+ indicates an MIC value of less than 128 micrograms per mL)	+ (+ indicates an MIC value of less than 128 micrograms per mL)	
Cc1ccc(NC(=N)NC2[C@H](O[C@@H]3C(NC(=O)Nc4cccc(C(F)(F)F)c4)COC(CO)[C@@H]3N)OC(CO)[C@@H](O)[C@@H]2O)cc1 (stereo partly shown) [compound 47]	+ (+ indicates an MIC value of less than 128 micrograms per mL)		
Cc1ccc(S(=O)(=O)NC2[C@H](O[C@@H]3C(NC(=O)Nc4cccc(C(F)(F)F)c4)COC(CO)[C@@H]3N)OC(CO)[C@@H](O)[C@@H]2O)cc1 (stereo partly shown) [compound 50]	+ (+ indicates an MIC value of less than 128 micrograms per mL)		
